Results: PMC9611297, “Design, Synthesis, Anticancer Activity and Molecular Docking of New 1,2,3-Triazole-Based Glycosides Bearing 1,3,4-Thiadiazolyl, Indolyl and Arylacetamide Scaffolds” (Molecules, 2022)
Like-named read-outs stand apart in the source and are kept apart here. Values belong to the molecule of their own block, whether it stands above or below them.

Experiments:
[1] = test system: MCF-7 (human breast adenocarcinoma) cell line; assay: MTT cytotoxicity assay, MCF-7; settings: read-out: IC50 (µM) ± SD MCF-7
Protocol: (§3) This test is based on MTT cleavage by mitochondrial dehydrogenases from viable cells [50, 51, 52]. […] After incubation, the media were removed, and 40 µL of MTT (2.5 mg mL^−1) was added to each well. Incubation was resumed for an additional 4 h. The purple formazan dye crystals were solubilized with 200 µL DMSO. Absorbance was measured at 590 nm in a Spectra Max Paradigm Multi-Mode microplate reader (Molecular Devices, LLC, San Jose, CA, USA). Relative cell viability was expressed as the mean percentage of viable cells compared to the untreated control cells.
(§4) All experiments were conducted in triplicate and repeated on three different days. All values are reported as mean ± SD. IC50 values were determined by SPSS Inc. probit analysis (IBM Corp., Armonk, NY, USA).

[2] = test system: HCT-116 (human colorectal carcinoma) cell line; assay: MTT cytotoxicity assay, HCT-116; settings: read-out: IC50 (µM) ± SD HCT-116
Protocol: as §3, §4

[3] = target: EGFR^WT (Homo sapiens, UniProt P00533); assay: EGFR^WT kinase inhibition (HTRF assay); format: biochemical; settings: ATP 1.65 μM, 30 min, room temperature, read-out: IC50 (Mean ± SEM) (µM) EGFR^WT
Protocol: (§1) A homogeneous time-resolved fluorescence (HTRF) assay was applied in this test (Sigma). […] The assay was conducted for 30 min at room temperature. The reaction was stopped by the addition of detection reagents that contained EDTA. […] Three independent experiments were performed for each concentration.

[4] = target: EGFR^T790M (Homo sapiens, UniProt P00533, T790M); assay: EGFR^T790M kinase inhibition (HTRF assay); format: biochemical; settings: ATP 1.65 μM, 30 min, room temperature, read-out: IC50 (Mean ± SEM) (µM) EGFR^T790M
Protocol: as §1

[5] = target: HER-2 (Homo sapiens, UniProt P04626); assay: HER-2 kinase inhibition (HTRF assay); format: biochemical; settings: ATP 1.65 μM, 30 min, room temperature, read-out: IC50 (Mean ± SEM) (µM) HER-2 (converted)
Protocol: as §1

[6] = test system: MCF-7 cells; assay: Annexin V/PI apoptosis detection by flow cytometry; format: cell-based, human; settings: MCF-7, 24 h, at IC50 concentration (7: 0.5 μM; 15: 0.6 μM); for Apoptosis Late: control 0.28%; for Apoptosis Early: control 0.46%; for Necrosis: control 1.25%; for Apoptosis Total: control 1.99
Protocol: The proportion of late apoptosis obtained with compounds 7 and 15 was higher than that of the early phase, leading to the induction of apoptosis and confirming the effectiveness of these derivatives in cancer therapy.
(§2) Apoptosis investigation and cell cycle analysis were performed by flow cytometry. MCF-7 cells were seeded at 8 × 10^4 and incubated at 37 °C in 5% CO2 overnight. After treatment with the tested compounds 7 and 15 for 24 h, cell pellets were collected and centrifuged (300 g, 5 min). For cell cycle analysis, cell pellets were fixed with 70% ethanol on ice for 15 min and collected again. The pellets were incubated with propidium iodide (PI) staining solution at room temperature for 1 h and analyzed with a Gallios flow cytometer (Beckman Coulter, Brea, CA, USA). Apoptosis detection was carried out by the FITC AnnexinV/PI commercial kit (Becton Dickenson, Franklin Lakes, NJ, USA) following the manufacturer’s protocol. The samples were analyzed by fluorescence-activated cell sorting (FACS) with a Gallios flow cytometer (Beckman Coulter, Brea, CA, USA) within 1 h after staining. Data were analyzed using Kaluza v 1.2 (Beckman Coulter).

[7] = test system: MCF-7 cells; assay: Cell cycle analysis (PI staining, flow cytometry); format: cell-based, human; settings: MCF-7, 24 h treatment; for cell accumulation at sub-G1 phase (%pre G): untreated 1.99%; for cell accumulation at S phase (%DIP S): untreated 33.85%
Protocol: Moreover, the cessation of cell division at cell cycle checkpoints is considered one of the main roles of anticancer therapeutics.
as §2

[8] = MTT assay, 48 h incubation, mean ± SD

Chain of HER-2 (P04626 23-1255): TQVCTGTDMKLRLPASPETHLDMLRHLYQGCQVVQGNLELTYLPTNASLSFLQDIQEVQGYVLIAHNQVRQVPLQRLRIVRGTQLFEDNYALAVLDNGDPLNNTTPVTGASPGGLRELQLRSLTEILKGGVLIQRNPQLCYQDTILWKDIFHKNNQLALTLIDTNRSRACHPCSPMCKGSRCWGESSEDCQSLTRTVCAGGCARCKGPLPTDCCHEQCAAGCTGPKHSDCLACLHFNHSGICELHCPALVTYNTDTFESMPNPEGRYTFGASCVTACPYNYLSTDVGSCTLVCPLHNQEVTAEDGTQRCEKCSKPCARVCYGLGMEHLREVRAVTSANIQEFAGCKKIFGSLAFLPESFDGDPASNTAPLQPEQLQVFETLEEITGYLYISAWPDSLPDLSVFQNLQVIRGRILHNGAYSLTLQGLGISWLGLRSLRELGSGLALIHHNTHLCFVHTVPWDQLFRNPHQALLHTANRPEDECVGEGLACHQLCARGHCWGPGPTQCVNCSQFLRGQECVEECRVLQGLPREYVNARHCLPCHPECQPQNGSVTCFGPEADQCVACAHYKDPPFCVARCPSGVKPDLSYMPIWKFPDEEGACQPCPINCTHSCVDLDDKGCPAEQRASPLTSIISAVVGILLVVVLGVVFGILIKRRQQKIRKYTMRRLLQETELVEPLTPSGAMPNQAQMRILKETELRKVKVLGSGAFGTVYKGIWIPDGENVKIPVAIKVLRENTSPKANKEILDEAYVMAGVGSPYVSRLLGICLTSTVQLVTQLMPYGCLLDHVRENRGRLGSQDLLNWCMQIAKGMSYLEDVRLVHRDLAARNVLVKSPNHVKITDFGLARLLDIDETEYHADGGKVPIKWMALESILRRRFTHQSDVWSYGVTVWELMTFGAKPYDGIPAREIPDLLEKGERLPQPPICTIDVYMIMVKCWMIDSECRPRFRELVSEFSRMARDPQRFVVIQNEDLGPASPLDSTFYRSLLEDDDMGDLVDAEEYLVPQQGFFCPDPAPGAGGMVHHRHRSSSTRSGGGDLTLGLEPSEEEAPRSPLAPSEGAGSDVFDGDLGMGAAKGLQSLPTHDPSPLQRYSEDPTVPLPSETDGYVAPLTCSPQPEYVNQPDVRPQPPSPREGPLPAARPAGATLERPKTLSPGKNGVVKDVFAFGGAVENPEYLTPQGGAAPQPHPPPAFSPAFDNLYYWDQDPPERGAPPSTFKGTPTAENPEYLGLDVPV
Chain of EGFR^T790M (P00533 25-1210 T790M): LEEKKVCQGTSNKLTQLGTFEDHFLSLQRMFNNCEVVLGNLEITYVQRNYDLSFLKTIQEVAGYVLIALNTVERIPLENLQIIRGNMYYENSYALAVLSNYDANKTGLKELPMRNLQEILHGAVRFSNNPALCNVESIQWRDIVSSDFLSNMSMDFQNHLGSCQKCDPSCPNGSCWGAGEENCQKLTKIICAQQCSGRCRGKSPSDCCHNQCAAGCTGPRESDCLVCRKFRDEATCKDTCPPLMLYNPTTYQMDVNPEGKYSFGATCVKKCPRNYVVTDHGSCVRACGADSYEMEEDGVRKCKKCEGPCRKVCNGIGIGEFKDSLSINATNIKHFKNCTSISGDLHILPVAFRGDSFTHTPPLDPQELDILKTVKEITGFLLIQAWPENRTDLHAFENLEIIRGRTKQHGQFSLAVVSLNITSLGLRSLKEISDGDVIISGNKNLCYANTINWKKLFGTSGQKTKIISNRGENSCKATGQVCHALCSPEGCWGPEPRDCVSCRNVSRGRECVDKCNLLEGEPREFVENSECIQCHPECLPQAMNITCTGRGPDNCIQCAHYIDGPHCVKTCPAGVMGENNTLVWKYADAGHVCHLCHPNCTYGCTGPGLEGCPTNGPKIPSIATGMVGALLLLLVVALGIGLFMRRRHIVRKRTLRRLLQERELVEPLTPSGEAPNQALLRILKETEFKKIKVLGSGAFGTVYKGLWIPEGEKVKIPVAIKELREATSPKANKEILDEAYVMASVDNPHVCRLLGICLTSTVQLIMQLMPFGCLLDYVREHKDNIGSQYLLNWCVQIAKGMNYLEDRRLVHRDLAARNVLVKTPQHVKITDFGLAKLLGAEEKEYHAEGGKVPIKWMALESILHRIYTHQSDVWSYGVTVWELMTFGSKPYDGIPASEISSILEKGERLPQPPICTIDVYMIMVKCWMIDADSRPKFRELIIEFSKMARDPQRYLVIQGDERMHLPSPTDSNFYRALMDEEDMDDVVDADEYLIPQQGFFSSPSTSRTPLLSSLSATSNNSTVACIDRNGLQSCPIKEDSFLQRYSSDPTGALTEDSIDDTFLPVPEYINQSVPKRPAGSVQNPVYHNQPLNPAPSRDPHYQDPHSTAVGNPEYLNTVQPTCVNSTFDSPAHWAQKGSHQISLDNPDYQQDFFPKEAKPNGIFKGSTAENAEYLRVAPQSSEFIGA
Chain of EGFR^WT (P00533 25-1210): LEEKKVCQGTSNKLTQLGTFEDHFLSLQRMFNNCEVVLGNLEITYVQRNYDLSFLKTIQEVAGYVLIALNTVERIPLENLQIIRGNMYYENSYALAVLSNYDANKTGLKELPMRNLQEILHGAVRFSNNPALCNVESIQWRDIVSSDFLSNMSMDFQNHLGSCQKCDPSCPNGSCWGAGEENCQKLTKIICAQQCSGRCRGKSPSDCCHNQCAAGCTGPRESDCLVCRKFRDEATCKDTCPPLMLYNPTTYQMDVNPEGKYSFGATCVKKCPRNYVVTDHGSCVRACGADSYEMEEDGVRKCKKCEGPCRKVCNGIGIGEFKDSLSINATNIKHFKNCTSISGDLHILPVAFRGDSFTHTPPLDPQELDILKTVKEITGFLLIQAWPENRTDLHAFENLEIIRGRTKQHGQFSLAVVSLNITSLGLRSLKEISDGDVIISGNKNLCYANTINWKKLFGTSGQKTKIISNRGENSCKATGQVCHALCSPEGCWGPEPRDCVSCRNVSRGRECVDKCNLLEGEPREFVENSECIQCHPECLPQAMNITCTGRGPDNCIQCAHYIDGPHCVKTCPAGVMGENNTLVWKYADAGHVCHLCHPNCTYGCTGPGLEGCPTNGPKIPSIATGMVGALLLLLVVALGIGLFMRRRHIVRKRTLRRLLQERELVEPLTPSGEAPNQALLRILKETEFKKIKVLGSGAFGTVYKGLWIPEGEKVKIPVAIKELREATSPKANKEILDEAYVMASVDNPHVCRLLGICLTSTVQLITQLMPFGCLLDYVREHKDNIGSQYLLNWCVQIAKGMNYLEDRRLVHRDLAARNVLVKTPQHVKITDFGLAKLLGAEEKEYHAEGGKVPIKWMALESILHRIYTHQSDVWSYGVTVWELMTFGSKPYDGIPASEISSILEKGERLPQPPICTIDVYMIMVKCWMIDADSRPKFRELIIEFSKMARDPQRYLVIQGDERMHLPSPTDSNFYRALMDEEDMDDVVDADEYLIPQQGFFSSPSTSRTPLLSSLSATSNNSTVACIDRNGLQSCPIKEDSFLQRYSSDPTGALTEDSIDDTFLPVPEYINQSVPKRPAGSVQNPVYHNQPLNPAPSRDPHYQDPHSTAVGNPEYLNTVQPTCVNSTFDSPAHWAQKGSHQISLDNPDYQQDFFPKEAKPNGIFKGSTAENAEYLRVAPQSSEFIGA

IC50 [3]: 0.3 ± 0.01 µM
IC50 [4]: 1.12 ± 0.55 µM
IC50 [5]: 2.25 ± 0.3 µM
melting point: 210 to 213 °C
Compound: CCn1cc(C=Nc2nnc(SCCn3cc(CO[C@@H]4O[C@H](CO)[C@@H](O)[C@H](O)[C@H]4O)nn3)s2)c2ccccc21 [Compound 7, 1-(1-Ethyl-1H-indol-3-yl)-N-(5-((2-(4-({[β-D-glucopyranosyl]oxy}methyl)-1H-1,2,3-triazol-1-yl)ethyl)thio)-1,3,4-thiadiazol-2-yl)methanimine]
Apoptosis Late [6]: 18.81%
Apoptosis Early [6]: 4.39%
Necrosis [6]: 11.41%
Apoptosis Total [6]: 34.61%
cell accumulation at sub-G1 phase (%pre G) [7]: 34.61%
cell accumulation at S phase (%DIP S) [7]: 43.51%
IC50 ([1]; Homo sapiens, MCF7, 48 h): 0.5 µM
IC50 ([2]; Homo sapiens, HCT-116, 48 h): 15.5 ± 0.2 µM

IC50 [3]: 0.38 ± 0.05 µM
IC50 [4]: 1.95 ± 0.02 µM
IC50 [5]: 2.77 ± 0.13 µM
melting point: 203 to 204 °C
Compound: CCn1cc(C=Nc2nnc(SCCn3cc(CO[C@@H]4OC[C@@H](O)[C@H](O)[C@H]4O)nn3)s2)c2ccccc21 [Compound 8, 1-(1-Ethyl-1H-indol-3-yl)-N-(5-((2-(4-({[β-D-Xylopyranosyl]oxy}methyl)-1H-1,2,3-triazol-1-yl)ethyl)thio)-1,3,4-thiadiazol-2-yl)methanimine]
IC50 ([1]; Homo sapiens, MCF7, 48 h): 4.2 ± 0.1 µM
IC50 ([2]; Homo sapiens, HCT-116, 48 h): 4.6 ± 0.1 µM

IC50 [3]: 6.45 ± 0.1 µM
IC50 [4]: 11.8 ± 0.05 µM
IC50 [5]: 8.6 ± 0.2 µM
melting point: 95 to 96 °C
Compound: CC(=O)O[C@@H]1[C@@H](OC(C)=O)[C@H](OCc2cn(CC(=O)Nc3ccc(C)cc3)nn2)OC[C@H]1OC(C)=O [Compound 11, 2-(4-({[2,3,4-Tri-O-acetyl-β-D-xylopyranosyl]oxy}methyl)-1H-1,2,3-triazol-1-yl)-N-(p-tolyl)acetamide]
IC50 ([1]; Homo sapiens, MCF7, 48 h): 0.8 µM
IC50 ([2]; Homo sapiens, HCT-116, 48 h): 15.4 ± 0.2 µM

IC50 [3]: 12.7 ± 0.15 µM
IC50 [4]: 15.2 ± 0.2 µM
IC50 [5]: 18.4 µM
melting point: 98 to 99 °C
Compound: CC(=O)OC[C@H]1O[C@@H](OCc2cn(CC(=O)Nc3ccc(C)cc3)nn2)[C@H](OC(C)=O)[C@@H](OC(C)=O)[C@H]1OC(C)=O [Compound 12, 2-(4-({[2,3,4,6-Tetra-O-acetyl-β-D-galactopyranosyl]oxy}methyl)-1H-1,2,3-triazol-1-yl)-N-(p-tolyl)acetamide]
IC50 ([1]; Homo sapiens, MCF7, 48 h): 5.7 ± 0.1 µM
IC50 ([2]; Homo sapiens, HCT-116, 48 h): 2.2 ± 0.1 µM

melting point: 142 to 144 °C
Compound: CC(=O)O[C@@H]1[C@@H](OC(C)=O)[C@H](OCc2cn(CC(=O)Nc3ccc(F)cc3)nn2)OC[C@H]1OC(C)=O [Compound 13, 2-(4-({[2,3,4-Tri-O-acetyl-β-D-xylopyranosyl]oxy}methyl)-1H-1,2,3-triazol-1-yl)-N-(4-fluorophenyl)acetamide]
IC50 ([1]; Homo sapiens, MCF7, 48 h): 34.4 ± 0.4 µM
IC50 ([2]; Homo sapiens, HCT-116, 48 h): 38.2 ± 0.5 µM

IC50 [3]: 0.21 ± 0.05 µM
IC50 [4]: 1.5 ± 0.11 µM
IC50 [5]: 2.18 ± 0.42 µM
melting point: 193 to 194 °C
Compound: Cc1ccc(NC(=O)Cn2cc(CO[C@@H]3OC[C@@H](O)[C@H](O)[C@H]3O)nn2)cc1 [Compound 15, 2-(4-({[β-D-Xylopyranosyl]oxy}methyl)-1H-1,2,3-triazol-1-yl)-N-(p-tolyl)acetamide]
Apoptosis Late [6]: 25.48%
Apoptosis Early [6]: 2.69%
Necrosis [6]: 14.28%
Apoptosis Total [6]: 42.45%
cell accumulation at sub-G1 phase (%pre G) [7]: 42.45%
cell accumulation at S phase (%DIP S) [7]: 52.08%
IC50 ([1]; Homo sapiens, MCF7, 48 h): 0.6 µM
IC50 ([2]; Homo sapiens, HCT-116, 48 h): 11.4 ± 0.3 µM

melting point: 199 to 200 °C
Compound: Cc1ccc(NC(=O)Cn2cc(CO[C@@H]3O[C@H](CO)[C@H](O)[C@H](O)[C@H]3O)nn2)cc1 [Compound 16, 2-(4-({[β-D-Galactopyranosyl]oxy}methyl)-1H-1,2,3-triazol-1-yl)-N-(p-tolyl)acetamide]
IC50 ([1]; Homo sapiens, MCF7, 48 h): 20.3 ± 0.9 µM
IC50 ([2]; Homo sapiens, HCT-116, 48 h): 35.7 ± 0.4 µM

melting point: 197 to 198 °C
Compound: O=C(Cn1cc(CO[C@@H]2OC[C@@H](O)[C@H](O)[C@H]2O)nn1)Nc1ccc(F)cc1 [Compound 17, 2-(4-({[β-D-Xylopyranosyl]oxy}methyl)-1H-1,2,3-triazol-1-yl)-N-(4-fluorophenyl)acetamide]
IC50 ([1]; Homo sapiens, MCF7, 48 h): 30.1 ± 0.4 µM
IC50 ([2]; Homo sapiens, HCT-116, 48 h): 26.5 ± 0.3 µM

Second part, the molecule before the results:

Compound: CCn1cc(/C=N\c2nnc(S)s2)c2ccccc21 [Compound 1]
IC50 ([1]; Homo sapiens, MCF7, 48 h): 18.1 ± 0.2 µM
IC50 ([2]; Homo sapiens, HCT-116, 48 h): 46.9 ± 0.5 µM

Compound: CCn1cc(C=Nc2nnc(SCCBr)s2)c2ccccc21 [Compound 2, N-(5-((2-Bromoethyl)thio)-1,3,4-thiadiazol-2-yl)-1-(1-ethyl-1H-indol-3-yl)methanimine]
melting point: 90 to 92 °C
IC50 [1, 8]: 14.1 ± 0.3 µM
IC50 [2, 8]: 52.7 ± 0.6 µM

Compound: CCn1cc(C=Nc2nnc(SCCN=[N+]=[N-])s2)c2ccccc21 [Compound 3, N-(5-((2-Azidoethyl)thio)-1,3,4-thiadiazol-2-yl)-1-(1-ethyl-1H-indol-3-yl)methanimine]
melting point: 101 to 102 °C
IC50 ([1]; Homo sapiens, MCF7, 48 h): 1.1 ± 0.1 µM
IC50 ([2]; Homo sapiens, HCT-116, 48 h): 30.8 ± 0.4 µM

Compound: CCn1cc(C=Nc2nnc(SCCn3cc(CO[C@@H]4O[C@H](COC(C)=O)[C@@H](OC(C)=O)[C@H](OC(C)=O)[C@H]4OC(C)=O)nn3)s2)c2ccccc21 [Compound 5, 1-(1-Ethyl-1H-indol-3-yl)-N-(5-((2-(4-({[2,3,4,6-tetra-O-acetyl-β-D-glucopyranosyl]oxy}methyl)-1H-1,2,3-triazol-1-yl)ethyl)thio)-1,3,4-thiadiazol-2-yl)methanimine]
melting point: 131 to 132 °C
IC50 ([1]; Homo sapiens, MCF7, 48 h): 13.9 ± 0.2 µM
IC50 ([2]; Homo sapiens, HCT-116, 48 h): 22.6 ± 0.2 µM

Compound: CCn1cc(C=Nc2nnc(SCCn3cc(CO[C@@H]4OC[C@@H](OC(C)=O)[C@H](OC(C)=O)[C@H]4OC(C)=O)nn3)s2)c2ccccc21 [Compound 6, 1-(1-Ethyl-1H-indol-3-yl)-N-(5-((2-(4-({[2,3,4-tri-O-acetyl-β-D-xylopyranos-yl]oxy}methyl)-1H-1,2,3-triazol-1-yl)ethyl)thio)-1,3,4-thiadiazol-2-yl)methanimine]
melting point: 136 to 138 °C
IC50 ([1]; Homo sapiens, MCF7, 48 h): 10.8 ± 1.5 µM
IC50 ([2]; Homo sapiens, HCT-116, 48 h): 20.8 ± 0.2 µM

Compound: Cc1ccc(NC(=O)CN=[N+]=[N-])cc1 [Compound 9a]
IC50 ([1]; Homo sapiens, MCF7, 48 h): 24.1 ± 0.3 µM
IC50 ([2]; Homo sapiens, HCT-116, 48 h): 42.3 ± 0.6 µM

Compound: [N-]=[N+]=NCC(=O)Nc1ccc(F)cc1 [Compound 9b]
IC50 ([1]; Homo sapiens, MCF7, 48 h): 26.4 ± 0.3 µM
IC50 ([2]; Homo sapiens, HCT-116, 48 h): 33.3 ± 0.4 µM

Compound: CC(=O)OC[C@H]1O[C@@H](OCc2cn(CC(=O)Nc3ccc(F)cc3)nn2)[C@H](OC(C)=O)[C@@H](OC(C)=O)[C@H]1OC(C)=O [Compound 14, 2-(4-({[2,3,4,6-Tetra-O-acetyl-β-D-galactopyranosyl]oxy}methyl)-1H-1,2,3-triazol-1-yl)-N-(4-fluorophenyl)acetamide]
IC50 ([1]; Homo sapiens, MCF7, 48 h): 35.3 ± 0.3 µM
IC50 ([2]; Homo sapiens, HCT-116, 48 h): 33.8 ± 0.3 µM

Compound: O=C(Cn1cc(CO[C@@H]2O[C@H](CO)[C@H](O)[C@H](O)[C@H]2O)nn1)Nc1ccc(F)cc1 [Compound 18, 2-(4-({[β-D-Galactopyranosyl]oxy}methyl)-1H-1,2,3-triazol-1-yl)-N-(4-fluorophenyl)acetamide]
IC50 ([1]; Homo sapiens, MCF7, 48 h): 31.6 ± 0.5 µM
IC50 ([2]; Homo sapiens, HCT-116, 48 h): 28.8 ± 0.1 µM

Compound: COc1cccc2c1C(=O)c1c(O)c3c(c(O)c1C2=O)C[C@@](O)(C(=O)CO)C[C@@H]3O[C@H]1C[C@H](N)[C@H](O)[C@H](C)O1 [Doxorubicin, reference compound]
IC50 ([1]; Homo sapiens, MCF7, 48 h): 9.4 ± 0.1 µM
IC50 ([2]; Homo sapiens, HCT-116, 48 h): 12.1 ± 0.2 µM
